Reference: article PMC11375702, “Early Preclinical Studies of Ergosterol Peroxide and Biological Evaluation of Its Derivatives” (ACS Omega, 2024)

What was measured:
[1] = Plasma protein binding, rapid equilibrium dialysis (mouse); type: in vitro ADME; settings: read-out: plasma binding (mouse) protein binding (converted)
Method: This assay determines the plasma protein binding of a drug or compound and free drug concentration in plasma using rapid equilibrium dialysis. We use the Single-Use RED (rapid equilibrium dialysis, Thermo Scientific) devices to allow the aqueous component of plasma containing the free drug/compound through a dialysis membrane (MWCO ∼ 8000). Sample quantification is determined using a Waters ACQUITY-SOQ UPLC-MS-ELDS-UV system.

CYP2C8 = biological target: T1, CYP2C8 (Homo sapiens, UniProt P10632); experiment: Microsomal CYP inhibition assay, CYP2C8; type: in vitro ADME; settings: pooled human liver microsomes, probe amodiaquine
T1 sequence (P10632 1-490): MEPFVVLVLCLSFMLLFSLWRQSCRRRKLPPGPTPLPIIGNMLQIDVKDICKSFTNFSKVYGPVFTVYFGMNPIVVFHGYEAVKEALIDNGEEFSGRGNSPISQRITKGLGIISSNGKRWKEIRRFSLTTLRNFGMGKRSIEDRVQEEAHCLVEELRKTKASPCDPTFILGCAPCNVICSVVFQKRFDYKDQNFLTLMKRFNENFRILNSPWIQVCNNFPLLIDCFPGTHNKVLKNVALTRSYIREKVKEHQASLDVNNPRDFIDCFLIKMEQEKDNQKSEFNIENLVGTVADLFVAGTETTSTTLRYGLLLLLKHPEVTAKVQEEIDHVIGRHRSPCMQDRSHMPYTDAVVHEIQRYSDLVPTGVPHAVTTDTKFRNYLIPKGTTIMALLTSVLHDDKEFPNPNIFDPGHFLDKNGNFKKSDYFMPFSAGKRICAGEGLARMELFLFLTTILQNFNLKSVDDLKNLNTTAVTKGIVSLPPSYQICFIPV
Method: (§1) To assess potential cardiotoxicity, we performed the human ether-go-go-related gene (hERG) inhibition assay. […] Briefly, EP was tested at six concentrations (cumulative concentration–response). […] For hepatotoxicity determination, we performed the microsomal CYP inhibition assay. Briefly, EP was incubated at seven increasing concentrations with pooled human liver microsomes. […] The supernatants were analyzed by LC-MS/MS.

CYP2B6 = biological target: T2, CYP2B6 (Homo sapiens, UniProt P20813); experiment: Microsomal CYP inhibition assay, CYP2B6; type: in vitro ADME; settings: pooled human liver microsomes, probe bupropion
T2 construct: from tissue; host or cells: pooled human liver microsomes
T2 sequence (P20813 1-491): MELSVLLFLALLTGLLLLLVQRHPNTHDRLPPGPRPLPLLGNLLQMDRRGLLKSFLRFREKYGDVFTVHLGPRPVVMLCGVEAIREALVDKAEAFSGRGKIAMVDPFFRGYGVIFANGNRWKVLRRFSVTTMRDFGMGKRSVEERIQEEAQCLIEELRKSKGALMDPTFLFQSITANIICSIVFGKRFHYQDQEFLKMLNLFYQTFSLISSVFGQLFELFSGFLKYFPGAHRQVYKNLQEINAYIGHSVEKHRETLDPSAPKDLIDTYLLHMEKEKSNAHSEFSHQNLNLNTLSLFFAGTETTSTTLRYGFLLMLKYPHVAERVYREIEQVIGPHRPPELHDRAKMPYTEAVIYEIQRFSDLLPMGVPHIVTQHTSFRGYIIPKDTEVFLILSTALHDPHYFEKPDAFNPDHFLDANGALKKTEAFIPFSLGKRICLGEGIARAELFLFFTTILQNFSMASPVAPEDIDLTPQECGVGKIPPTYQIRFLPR
Method: as §1

[2] = Plasma stability assay (human)
[3] = Balb/c, mouse and human
Method: Briefly, pooled blood from 3 animals for experiment (male Balb/c 6–8w from the division of laboratory animal medicine in-house breeding colony) was collected, and the heparinized plasma was prepared. Plasma and test compounds were added to individual wells of a 96-well microtiter plate. Compounds were incubated at 37 °C for the provided time points. All tests were performed in triplicates. The test compound was incubated with plasma at six different time points. The reaction was terminated by methanol containing an internal standard. After centrifugation, the concentration of the test compound in the supernatant was quantified by LC-MS/MS.
Plasma stability assay: Briefly, pooled blood from 3 animals for experiment (male Balb/c 6-8w
from the division of laboratory animal medicine in-house breeding colony) was collected, and
the heparinized plasma was prepared. Plasma and test compounds were added to the individual
wells of a 96-well microtiter plate. Compounds were incubated at 37°C for the provided time
points. All tests were performed in triplicates. Then, the test compound was incubated with
plasma at six different time points. The reaction was terminated by the addition of methanol
containing an internal standard. After centrifugation, the concentration of the test compound in
the supernatant was quantified by LC-MS/MS. The percentage of test compound remaining at
compounds are known to be metabolized by plasma esterases,1 and were also incubated with
each batch of test compound.
A standard protocol and MS method was used for the plasma stability experiment. The extraction
procedure for plasma/tissue samples and the spiked plasma/tissue calibration standards were
identical: A 25 µL of study sample or spiked plasma/tissue calibration standard was added to
individual pre-labeled micro-centrifuge tubes followed by 100 µL of internal standard prepared
in Acetonitrile (Albendazole, 500 ng/mL) was added except for blank, where 100 µL of
Acetonitrile was added. Samples were vortexed for 5 minutes. Samples were centrifuged for 5
minutes at a speed of 4000 rpm at 4°C. Following centrifugation, 100 µL of clear supernatant
was transferred in 96 well plates and analyzed using LC-MS/MS mode. The LC system
comprises of a binary pump that can mix two mobile phases: A = Water+0.1% formic acid; B =
acetonitrile +0.1%formic acid. The system was operated in gradient mode using a 6 minute
min, 10-90% A to B in 5.5-6 min, and then hold at this gradient, using a Phenomenex Luna, 150
X 4.6 mm, 5 µm column. Source Parameter: positive, Ion Spray Voltage 5500, Temperature
550C, interface heater on.

| SMILES | fraction unbound [1] | IC50 (CYP2C8) [µM] | IC50 (CYP2B6) [µM] | half-life [2] [h] | plasma stability [3] [h] |
| --- | --- | --- | --- | --- | --- |
| CC(C)[C@@H](C)/C=C/[C@@H](C)[C@H]1CC[C@@H]2[C@]1(C)CC[C@H]1[C@]23C=C[C@]2(C[C@@H](O)CC[C@]12C)OO3 [Compound 2, Ergosterol peroxide] | 0.14 | 9.9 | > 25 | > 48 |  |
| CC(C)[C@@H](C)/C=C/[C@@H](C)[C@H]1CC[C@@H]2[C@]1(C)CC[C@H]1[C@]23C=C[C@]2(CC(=O)CC[C@]12C)OO3 [Compound 3] |  |  |  |  | > 48 |
